Like-named read-outs stand apart in the source and are kept apart here.
What was measured:
BTK = target: T1, BTK (Homo sapiens, UniProt Q06187); experiment: Inhibitory activity against BTK, ADP-Glo Kinase system (Promega); format: biochemical
T1 construct: purchased Signalchem B10-10H
Procedure, shortened: (§1)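 IC50 values were fitted from kinase reactions run for 1 h at 30°C with either 1 mM ATP or ATP at Km (10 µM for BTK, 25 µM for ITK). Reactions used 0.2 µg/µl poly(Glu4,Tyr1), recombinant human enzyme (BTK 10 ng, ITK 4 ng per reaction) in Tris pH 7.5 Mn/Mg buffer with 1% DMSO. ADP formed was read by ADP-Glo luminescence.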

ITK = target: T2, ITK (Homo sapiens, UniProt Q08881); experiment: Inhibitory activity against ITK, ADP-Glo Kinase system (Promega); format: biochemical
T2 construct: purchased Signalchem I13-11G-10
T2 sequence (Q08881 1-620): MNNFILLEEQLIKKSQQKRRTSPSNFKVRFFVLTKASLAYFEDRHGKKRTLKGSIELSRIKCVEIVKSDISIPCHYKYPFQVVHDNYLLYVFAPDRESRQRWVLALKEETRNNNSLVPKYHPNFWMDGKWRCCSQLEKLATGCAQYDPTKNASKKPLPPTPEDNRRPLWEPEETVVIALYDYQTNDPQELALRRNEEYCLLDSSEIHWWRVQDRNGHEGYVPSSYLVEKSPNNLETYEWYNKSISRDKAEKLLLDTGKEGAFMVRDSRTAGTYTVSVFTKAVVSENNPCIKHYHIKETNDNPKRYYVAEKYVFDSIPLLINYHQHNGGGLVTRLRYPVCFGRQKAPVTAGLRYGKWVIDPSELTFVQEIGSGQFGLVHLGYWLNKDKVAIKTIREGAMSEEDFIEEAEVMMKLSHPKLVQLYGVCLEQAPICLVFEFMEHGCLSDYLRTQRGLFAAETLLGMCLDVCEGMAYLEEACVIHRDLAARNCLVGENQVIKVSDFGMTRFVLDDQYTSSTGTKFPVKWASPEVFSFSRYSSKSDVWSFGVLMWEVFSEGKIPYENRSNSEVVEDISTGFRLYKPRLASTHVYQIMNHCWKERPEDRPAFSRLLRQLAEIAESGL
Procedure, shortened: as §1

[1] = 1mM ATP, read-out: BTK IC50(nM) 1mM ATP
[2] = 1mM ATP, read-out: ITK IC50(nM) 1mM ATP
[3] = Km ATP (BTK: 10 uM), read-out: BTK IC50(nM) Km ATP
[4] = Km ATP (ITK: 25uM), read-out: ITK IC50(nM) Km ATP

T1 sequence (Q06187 whole entry): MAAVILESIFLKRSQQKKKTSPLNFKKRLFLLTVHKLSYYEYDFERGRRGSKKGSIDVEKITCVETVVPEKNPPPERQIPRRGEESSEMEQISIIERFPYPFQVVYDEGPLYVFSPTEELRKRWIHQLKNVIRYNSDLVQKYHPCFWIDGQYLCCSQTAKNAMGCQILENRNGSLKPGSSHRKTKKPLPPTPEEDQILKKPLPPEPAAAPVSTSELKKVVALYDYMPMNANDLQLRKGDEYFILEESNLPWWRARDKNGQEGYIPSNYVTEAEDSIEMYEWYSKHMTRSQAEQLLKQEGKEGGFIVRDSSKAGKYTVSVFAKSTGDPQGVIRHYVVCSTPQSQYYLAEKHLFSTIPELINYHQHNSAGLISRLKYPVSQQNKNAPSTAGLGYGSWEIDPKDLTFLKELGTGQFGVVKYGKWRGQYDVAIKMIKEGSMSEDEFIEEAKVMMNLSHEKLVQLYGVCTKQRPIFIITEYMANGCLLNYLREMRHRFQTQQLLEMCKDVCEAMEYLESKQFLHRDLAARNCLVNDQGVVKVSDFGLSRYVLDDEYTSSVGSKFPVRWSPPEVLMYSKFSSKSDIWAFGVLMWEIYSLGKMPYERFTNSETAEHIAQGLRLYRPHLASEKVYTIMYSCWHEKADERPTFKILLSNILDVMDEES

Compound | IC50 (BTK; [1]) [nM] | IC50 (ITK; [2]) [nM] | IC50 (BTK; [3]) [nM] | IC50 (ITK; [4]) [nM]
C=CC(=O)N1C[C@@H](Oc2nc(Nc3ncc(C)s3)cc3c2ccn3C2CCCC2)C[C@H]1C [Example 100, 1-((2R,4S)-4-((1-cyclopentyl-6-((5-methylthiazol-2-yl)amino)-1H-pyrrolo[3,2-c]pyridin-4-yl)oxy)-2-methylpyrrolidin-1-yl)prop-2-en-1-one] | ≤ 20 | ≤ 20 |  | 
C=CC(=O)N1CC[C@H](Oc2nc(Nc3cc(C)ncn3)cc3c2ccn3C(C)C)C1 [Example 101, (S)-1-(3-((1-isopropyl-6-((6-methylpyrimidin-4-yl)amino)-1H-pyrrolo[3,2-c]pyridin-4-yl)oxy)pyrrolidin-1-yl)prop-2-en-1-one] | ≤ 20 | 20 to 100 |  | 
C=CC(=O)N1CC[C@H](Oc2nc(Nc3cc(OC)ncn3)cc3c2ccn3C(C)C)C1 [Example 103, (S)-1-(3-((1-isopropyl-6-((6-methoxypyrimidin-4-yl)amino)-1H-pyrrolo[3,2-c]pyridin-4-yl)oxy)pyrrolidin-1-yl)prop-2-en-1-one] | ≤ 20 | 20 to 100 |  | 
C=CC(=O)N1CC[C@H](Oc2nc(Nc3cc(C)ncn3)cc3c2ccn3CC(C)C)C1 [Example 104, (S)-1-(3-((1-isobutyl-6-((6-methylpyrimidin-4-yl)amino)-1H-pyrrolo[3,2-c]pyridin-4-yl)oxy)pyrrolidin-1-yl)prop-2-en-1-one] | 20 to 100 | 20 to 100 |  | 
C=CC(=O)N1C[C@H](F)[C@H](Oc2nc(Nc3ncc(C)s3)cc3c2ccn3CC(C)C)C1 [Example 105, 1-((3S,4R)-3-fluoro-4-((1-isobutyl-6-((5-methylthiazol-2-yl)amino)-1H-pyrrolo[3,2-c]pyridin-4-yl)oxy)pyrrolidin-1-yl)prop-2-en-1-one] | ≤ 20 | ≤ 20 |  | 
C=CC(=O)N1C[C@@H](F)[C@H](Oc2nc(Nc3ncc(C)s3)cc3c2ccn3CC(C)C)C1 [Example 106, 1-((3R,4R)-3-fluoro-4-((1-isobutyl-6-((5-methylthiazol-2-yl)amino)-1H-pyrrolo[3,2-c]pyridin-4-yl)oxy)pyrrolidin-1-yl)prop-2-en-1-one] | ≤ 20 | ≤ 20 |  | 
C=CC(=O)N1C[C@H](F)[C@H](Oc2nc(Nc3ncc(C)s3)cc3c2ccn3CC2CC2)C1 [Example 107, 1-((3R,4S)-3-((1-(cyclopropylmethyl)-6-((5-methylthiazol-2-yl)amino)-1H-pyrrolo[3,2-c]pyridin-4-yl)oxy)-4-fluoropyrrolidin-1-yl)prop-2-en-1-one] | ≤ 20 | ≤ 20 |  | 
C=CC(=O)N1C[C@@H](F)[C@H](Oc2nc(Nc3ncc(C)s3)cc3c2ccn3CC2CC2)C1 [Example 108, 1-((3R,4R)-3-((1-(cyclopropylmethyl)-6-((5-methylthiazol-2-yl)amino)-1H-pyrrolo[3,2-c]pyridin-4-yl)oxy)-4-fluoropyrrolidin-1-yl)prop-2-en-1-one] | ≤ 20 | ≤ 20 |  | 
C=CC(=O)N1C[C@H](F)[C@H](Oc2nc(Nc3ncc(C)s3)cc3c2ccn3C2CCCC2)C1 [Example 109, 1-((3R,4S)-3-((1-cyclopentyl-6-((5-methylthiazol-2-yl)amino)-1H-pyrrolo[3,2-c]pyridin-4-yl)oxy)-4-fluoropyrrolidin-1-yl)prop-2-en-1-one] | ≤ 20 | ≤ 20 |  | 
C=CC(=O)N1C[C@@H](F)[C@H](Oc2nc(Nc3ncc(C)s3)cc3c2ccn3C2CCCC2)C1 [Example 110, 1-((3R,4R)-3-((1-cyclopentyl-6-((5-methylthiazol-2-yl)amino)-1H-pyrrolo[3,2-c]pyridin-4-yl)oxy)-4-fluoropyrrolidin-1-yl)prop-2-en-1-one] | ≤ 20 | ≤ 20 |  | 
C=CC(=O)N1CC[C@H](Oc2nc(Nc3ncc(C)s3)cc3c2ccn3[C@@H](C)CC)C1 [Example 111, 1-((S)-3-((1-((S)-sec-butyl)-6-((5-methylthiazol-2-yl)amino)-1H-pyrrolo[3,2-c]pyridin-4-yl)oxy)pyrrolidin-1-yl)prop-2-en-1-one] | ≤ 20 | ≤ 20 |  | 
C=CC(=O)N1C[C@H](F)[C@H](Oc2nc(Nc3ncc(C)s3)cc3c2ccn3[C@@H](C)CC)C1 [Example 112, 1-((3R,4S)-3-((1-((S)-sec-butyl)-6-((5-methylthiazol-2-yl)amino)-1H-pyrrolo[3,2-c]pyridin-4-yl)oxy)-4-fluoropyrrolidin-1-yl)prop-2-en-1-one] | ≤ 20 | ≤ 20 |  | 
C=CC(=O)N1C[C@@H](F)[C@H](Oc2nc(Nc3ncc(C)s3)cc3c2ccn3[C@@H](C)CC)C1 [Example 113, 1-((3R,4R)-3-((1-((S)-sec-butyl)-6-((5-methylthiazol-2-yl)amino)-1H-pyrrolo[3,2-c]pyridin-4-yl)oxy)-4-fluoropyrrolidin-1-yl)prop-2-en-1-one] | ≤ 20 | ≤ 20 |  | 
C=CC(=O)N1CC[C@H](Oc2nc(Nc3ncc(C)s3)cc3c2ccn3CCC(C)C)C1 [Example 114, (S)-1-(3-((1-isopentyl-6-((5-methylthiazol-2-yl)amino)-1H-pyrrolo[3,2-c]pyridin-4-yl)oxy)pyrrolidin-1-yl)prop-2-en-1-one] | ≤ 20 | ≤ 20 |  | 
C=CC(=O)N1C[C@@H](F)[C@H](Oc2nc(Nc3ncc(C)s3)cc3c2ccn3CCC(C)C)C1 [Example 115, 1-((3R,4R)-3-fluoro-4-((1-isopentyl-6-((5-methylthiazol-2-yl)amino)-1H-pyrrolo[3,2-c]pyridin-4-yl)oxy)pyrrolidin-1-yl)prop-2-en-1-one] |  |  | ≤ 20 | ≤ 20
C=CC(=O)N1CC(C)C(Oc2nc(Nc3ncc(C)s3)cc3c2ccn3CC(C)C)C1 (stereo not drawn) [Example 116, 1-(3-((1-isobutyl-6-((5-methylthiazol-2-yl)amino)-1H-pyrrolo[3,2-c]pyridin-4-yl)oxy)-4-methylpyrrolidin-1-yl)prop-2-en-1-one] |  |  | ≤ 20 | ≤ 20
C=CC(=O)N1CC[C@H](Oc2nc(Nc3ncc(C)s3)cc3c2ccn3Cc2ccccn2)C1 [Example 117, (S)-1-(3-((6-((5-methylthiazol-2-yl)amino)-1-(pyridin-2-ylmethyl)-1H-pyrrolo[3,2-c]pyridin-4-yl)oxy)pyrrolidin-1-yl)prop-2-en-1-one] |  |  | ≤ 20 | ≤ 20
C=CC(=O)N1CC(Oc2nc(Nc3ncc(C)s3)cc3c2ccn3CC(C)C)C1 [Example 118, 1-(3-((1-isobutyl-6-((5-methylthiazol-2-yl)amino)-1H-pyrrolo[3,2-c]pyridin-4-yl)oxy)azetidin-1-yl)prop-2-en-1-one] |  |  | 20 to 100 | 20 to 100
C=CC(=O)N1CC(C)(Oc2nc(Nc3ncc(C)s3)cc3c2ccn3CC(C)C)C1 [Example 119, 1-(3-((1-isobutyl-6-((5-methylthiazol-2-yl)amino)-1H-pyrrolo[3,2-c]pyridin-4-yl)oxy)-3-methylazetidin-1-yl)prop-2-en-1-one] |  |  | ≤ 20 | ≤ 20
C=CC(=O)N1C[C@@H](F)[C@H](Oc2nc(Nc3ncc(C)s3)cc3c2ccn3CC2(C(F)(F)F)CC2)C1 [Example 120, 1-((3R,4R)-3-fluoro-4-((6-((5-methylthiazol-2-yl)amino)-1-((1-(trifluoromethyl)cyclopropyl)methyl)-1H-pyrrolo[3,2-c]pyridin-4-yl)oxy)pyrrolidin-1-yl)prop-2-en-1-one] |  |  | ≤ 20 | ≤ 20
C=CC(=O)N1CC[C@H](Oc2nc(Nc3ncc(C)s3)cc3c2ccn3Cc2ccccc2)C1 [Example 121, (S)-1-(3-((1-benzyl-6-((5-methylthiazol-2-yl)amino)-1H-pyrrolo[3,2-c]pyridin-4-yl)oxy)pyrrolidin-1-yl)prop-2-en-1-one] |  |  | ≤ 20 | ≤ 20
C=CC(=O)N1CC[C@H](Oc2nc(Nc3ncc(CC)s3)cc3c2ccn3CC(C)C)C1 [Example 122, (S)-1-(3-((6-((5-ethylthiazol-2-yl)amino)-1-isobutyl-1H-pyrrolo[3,2-c]pyridin-4-yl)oxy)pyrrolidin-1-yl)prop-2-en-1-one] |  |  | ≤ 20 | ≤ 20
C=CC(=O)N1CC[C@H](Oc2nc(Nc3ncc(C)s3)cc3c2ccn3CC(C)CC)C1 (stereo partly drawn) [Example 123, 1-((3S)-3-((1-(2-methylbutyl)-6-((5-methylthiazol-2-yl)amino)-1H-pyrrolo[3,2-c]pyridin-4-yl)oxy)pyrrolidin-1-yl)prop-2-en-1-one] |  |  | ≤ 20 | ≤ 20
C=CC(=O)N1CC[C@H](Oc2nc(Nc3ncc(C)s3)cc3c2ccn3CCCC)C1 [Example 124, (S)-1-(3-((1-butyl-6-((5-methylthiazol-2-yl)amino)-1H-pyrrolo[3,2-c]pyridin-4-yl)oxy)pyrrolidin-1-yl)prop-2-en-1-one] |  |  | ≤ 20 | ≤ 20

From patent EP4707277A1, “NOVEL HETEROCYCLIC AMINE DERIVATIVES AND PHARMACEUTICAL COMPOSITION COMPRISING SAME” (Daewoong Pharmaceutical Co., Ltd., priority 2023, dated 2024)
